The target of test [1] is T1, Progesterone receptor (Ovis aries) (UniProt Q28590).
T1 sequence (whole entry): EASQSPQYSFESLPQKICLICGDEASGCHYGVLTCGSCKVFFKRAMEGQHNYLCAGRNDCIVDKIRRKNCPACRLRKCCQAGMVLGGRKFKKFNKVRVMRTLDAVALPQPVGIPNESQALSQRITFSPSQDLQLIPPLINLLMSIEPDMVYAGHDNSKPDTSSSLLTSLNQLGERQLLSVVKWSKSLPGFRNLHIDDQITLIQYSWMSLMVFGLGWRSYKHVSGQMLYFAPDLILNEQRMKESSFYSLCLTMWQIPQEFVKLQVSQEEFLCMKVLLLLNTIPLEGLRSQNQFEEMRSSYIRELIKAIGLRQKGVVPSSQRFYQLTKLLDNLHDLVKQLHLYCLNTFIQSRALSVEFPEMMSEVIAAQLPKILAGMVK
Description: Relative binding affinity to sheep progesterone receptor.

For test [2], the target named is T2, Progesterone receptor (Oryctolagus cuniculus) (UniProt P06186).
T2 sequence (whole entry): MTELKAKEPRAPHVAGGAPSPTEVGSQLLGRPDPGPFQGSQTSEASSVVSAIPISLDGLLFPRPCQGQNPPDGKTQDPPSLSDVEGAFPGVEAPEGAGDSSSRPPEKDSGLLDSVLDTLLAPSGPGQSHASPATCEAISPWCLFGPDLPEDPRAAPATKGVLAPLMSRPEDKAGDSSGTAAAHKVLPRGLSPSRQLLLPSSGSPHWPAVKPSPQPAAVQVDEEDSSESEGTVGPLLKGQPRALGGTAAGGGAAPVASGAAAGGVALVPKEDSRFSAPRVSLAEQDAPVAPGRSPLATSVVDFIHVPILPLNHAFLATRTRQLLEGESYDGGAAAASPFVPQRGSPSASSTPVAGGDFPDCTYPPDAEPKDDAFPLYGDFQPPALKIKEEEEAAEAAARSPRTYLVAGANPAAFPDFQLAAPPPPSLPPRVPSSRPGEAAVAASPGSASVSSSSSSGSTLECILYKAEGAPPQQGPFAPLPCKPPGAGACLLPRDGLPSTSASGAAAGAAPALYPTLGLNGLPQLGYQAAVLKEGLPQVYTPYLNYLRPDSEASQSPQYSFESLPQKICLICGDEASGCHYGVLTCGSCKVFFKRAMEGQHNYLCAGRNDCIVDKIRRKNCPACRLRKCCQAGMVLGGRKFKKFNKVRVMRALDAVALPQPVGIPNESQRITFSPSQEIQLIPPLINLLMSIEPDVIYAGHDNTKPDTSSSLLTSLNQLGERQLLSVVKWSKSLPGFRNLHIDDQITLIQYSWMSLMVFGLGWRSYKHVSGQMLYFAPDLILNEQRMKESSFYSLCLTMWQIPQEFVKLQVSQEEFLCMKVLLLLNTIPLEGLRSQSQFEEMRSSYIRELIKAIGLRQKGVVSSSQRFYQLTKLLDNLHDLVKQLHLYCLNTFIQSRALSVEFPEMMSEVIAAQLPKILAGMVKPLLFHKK
The experiment in a line: Relative binding affinity to rabbit progesterone receptor.

In test [3] the target is T3, Progesterone receptor (Homo sapiens) (UniProt P06401).
T3 sequence (whole entry): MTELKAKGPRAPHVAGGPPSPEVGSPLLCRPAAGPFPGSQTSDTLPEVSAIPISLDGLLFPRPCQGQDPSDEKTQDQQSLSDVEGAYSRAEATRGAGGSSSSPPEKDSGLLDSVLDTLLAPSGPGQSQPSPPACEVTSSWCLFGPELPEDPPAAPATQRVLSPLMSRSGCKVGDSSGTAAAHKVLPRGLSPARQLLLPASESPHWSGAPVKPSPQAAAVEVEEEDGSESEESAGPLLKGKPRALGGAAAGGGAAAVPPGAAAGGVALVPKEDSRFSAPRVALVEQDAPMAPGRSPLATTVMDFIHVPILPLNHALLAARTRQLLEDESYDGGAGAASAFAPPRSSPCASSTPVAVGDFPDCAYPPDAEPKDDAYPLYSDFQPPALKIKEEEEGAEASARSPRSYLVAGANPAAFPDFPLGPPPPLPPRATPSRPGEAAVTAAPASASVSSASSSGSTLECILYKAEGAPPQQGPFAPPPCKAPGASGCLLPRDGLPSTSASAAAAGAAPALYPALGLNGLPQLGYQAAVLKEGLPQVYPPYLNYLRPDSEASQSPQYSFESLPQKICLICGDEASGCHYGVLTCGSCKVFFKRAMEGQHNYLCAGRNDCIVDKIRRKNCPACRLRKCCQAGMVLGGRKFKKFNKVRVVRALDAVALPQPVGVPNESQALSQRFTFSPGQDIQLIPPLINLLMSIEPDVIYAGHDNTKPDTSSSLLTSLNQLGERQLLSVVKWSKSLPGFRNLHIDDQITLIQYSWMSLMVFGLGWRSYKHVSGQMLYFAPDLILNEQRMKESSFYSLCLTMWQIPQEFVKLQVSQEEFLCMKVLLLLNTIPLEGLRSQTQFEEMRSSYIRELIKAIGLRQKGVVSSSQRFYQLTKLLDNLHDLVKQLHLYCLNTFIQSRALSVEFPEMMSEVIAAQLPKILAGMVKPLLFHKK

The species entered for a further test is Cavia porcellus. Description: Relative binding affinity to guinea pig progesterone receptor.

On to `C#C[C@]1(O)CC[C@H]2[C@@H]3CC[C@H]4C[C@@H](O)CC[C@@H]4[C@H]3CC[C@@]21C`, for which the log(RBA) in test [1] was -1.3; in test [2], -0.52; in test [3] it was -0.7; in the test filed under Cavia porcellus, -2.

Consider `CC(=O)[C@H]1CC[C@H]2[C@@H]3CCC4=CC(=O)CC[C@]4(C)[C@H]3CC[C@]12C`, for which the log(RBA) (in test [1]; in test [2]; in test [3]; in the test filed under Cavia porcellus) was 2 each time.

On to `CC[C@@H]1C[C@H]2[C@@H]3CCC4=CC(=O)CC[C@@H]4[C@H]3CC[C@]2(C)[C@H]1C(=O)CF`, for which the log(RBA) in test [1] amounted to 2.08; in test [2] it was 2.36; in test [3] it was 2.23; in the test listed under Cavia porcellus, 1.6.

With `C#C[C@]1(O)CC[C@H]2[C@@H]3CC[C@H]4CC(=O)CC[C@@H]4[C@H]3CC[C@@]21C`, the log(RBA) in test [1] is 1; in test [2] it was 1.23; in test [3], 1.23; in the test listed under Cavia porcellus, 0.3.

Regarding `C#C[C@]1(O)CC[C@H]2[C@@H]3CCC4=CCCC[C@@H]4[C@H]3CC[C@@]21C`, the log(RBA) in test [1] was 0.602; in test [2], 1.11; in test [3], 0.7; in the test filed under Cavia porcellus, -0.52.

On to `C#C[C@]1(OC(C)=O)CC[C@H]2[C@@H]3CCC4=CC(=O)CC[C@@H]4[C@H]3CC[C@@]21C`, for which the log(RBA) in test [1] was 1.04; in test [2], 2.05; in test [3], 1.32; in the test filed under Cavia porcellus, 0.78.

As for `C#C[C@]1(O)CC[C@H]2[C@@H]3CC=C4CCCC[C@@H]4[C@H]3CC[C@@]21C`, the log(RBA) in test [1] is -0.7; in test [2], -0.523; in test [3], -1; in the test filed under Cavia porcellus it was -1.15.

`C#C[C@]1(O)CC[C@H]2[C@@H]3CCC4=C[C@@H](O)CC[C@@H]4[C@H]3CC[C@@]21C`: the log(RBA) is 1 in test [1], 1.3 in test [2], 1.4 in test [3] and -0.22 in the test listed under Cavia porcellus.

Regarding `C[C@]12CCC(=O)C=C1CC[C@@H]1[C@@H]2CC[C@]2(C)C(=O)CC[C@@H]12`, the log(RBA) in test [1] is -1; in test [2] it was -1; in test [3], -1; in the test filed under Cavia porcellus, -0.7.

For `C#C[C@]1(O)CC[C@H]2[C@@H]3CCC4=CC(=O)CC[C@@H]4[C@H]3[C@@H](Cl)C[C@@]21C`, the log(RBA) was determined as 2.06 in test [1], 2.32 in test [2], 2.11 in test [3] and 1.48 in the test filed under Cavia porcellus.

With `CC(=O)[C@H]1CC[C@H]2[C@@H]3CCC4=CC(=O)CC[C@@H]4[C@H]3CC[C@]12C`, the log(RBA) in test [1] is 2.13; in test [2], 2.41; in test [3] it was 2.11; in the test filed under Cavia porcellus it was 2.06.

Consider `CC(=O)[C@H]1CC[C@H]2[C@@H]3CCC4=CC(=O)CC[C@]4(C)[C@H]3CC(=O)[C@]12C`, for which the log(RBA) is -1 in test [1], -0.221 in test [2], -0.69 in test [3] and -0.52 in the test listed under Cavia porcellus.

For the compound `C[C@]12CCC(=O)C=C1CC[C@@H]1[C@@H]2[C@@H](O)C[C@@]2(C)[C@H]1CC[C@]2(O)C(=O)CO`, the log(RBA) was -1.3 in test [1], -1 in test [2], -1 in test [3] and -1 in the test listed under Cavia porcellus.

On to `CC(=O)[C@H]1CC[C@H]2[C@@H]3CCC4=CC(=O)CC[C@]4(C)[C@H]3C(=O)C[C@]12C`, for which the log(RBA) in test [1] is -0.097; in test [2] it was 0.301; in test [3], 0; in the test filed under Cavia porcellus, 0.

`CC[C@]12CC[C@H]3[C@@H](CCC4=CC(=O)CC[C@@]43C)[C@@H]1CC[C@@H]2C(C)=O`: the log(RBA) in test [1] stood at 1.04; in test [2], 1.5; in test [3], 1.43; in the test filed under Cavia porcellus it was 1.63.

In the case of `CC[C@@H]1C[C@H]2[C@@H]3CCC4=CC(=O)CC[C@]4(C)[C@H]3CC[C@]2(C)[C@H]1C(C)=O`, the log(RBA) in test [1] was determined as 1.87; in test [2], 1.98; in test [3], 1.98; in the test listed under Cavia porcellus, 1.08.

In the case of `C#C[C@]1(O)CC[C@H]2[C@@H]3CC[C@@H]4C[C@H](O)CC[C@@H]4[C@H]3CC[C@@]21C`, the log(RBA) was -2 in test [1], -1 in test [2], -1 in test [3] and -2 in the test listed under Cavia porcellus.

Regarding `C=CC[C@]1(O)CC[C@H]2[C@@H]3CCC4=CCCC[C@@H]4[C@H]3CC[C@@]21C`, the log(RBA) in test [1] is 0.6; in test [2], 1.08; in test [3] it was 0.48; in the test listed under Cavia porcellus, -0.7.

With `CC(=O)[C@@]12[C@@H](C[C@H]3[C@@H]4CCC5=CC(=O)CC[C@]5(C)[C@H]4CC[C@@]31C)C2(C)C`, the log(RBA) in test [1] amounted to 1.9; in test [2], 2.38; in test [3], 2.11; in the test listed under Cavia porcellus, 1.

Regarding `CC(=O)[C@H]1CC[C@H]2[C@@H]3CC[C@H]4CC(=O)CC[C@]4(C)[C@H]3CC[C@]12C`, the log(RBA) stood at 1.48 in test [1], 1.74 in test [2], 1.48 in test [3] and 1.4 in the test listed under Cavia porcellus.

`C[C@]1(O)CC[C@H]2[C@@H]3CCC4=CCCC[C@@H]4[C@H]3CC[C@@]21C`: the log(RBA) amounted to 0.778 in test [1], 1.3 in test [2], 0.78 in test [3] and 0.3 in the test listed under Cavia porcellus.

Regarding `CC(=O)[C@@]12O[C@@H]1C[C@H]1[C@@H]3CCC4=CC(=O)CC[C@]4(C)[C@H]3CC[C@@]12C`, the log(RBA) in test [1] was -0.52; in test [2], -0.097; in test [3], 0; in the test listed under Cavia porcellus it was -0.046.

With `C#C[C@]1(O)CC[C@H]2[C@@H]3CCC4=C(CCC(=O)C4)[C@H]3CC[C@@]21C`, the log(RBA) in test [1] was found to be 0.845; in test [2] it was 1.56; in test [3] it was 1.34; in the test listed under Cavia porcellus, 3.

`CC(=O)O[C@]1(C(C)=O)CC[C@H]2[C@@H]3CCC4=CC(=O)CC[C@]4(C)[C@H]3CC[C@@]21C`: the log(RBA) is 1.6 in test [1], 1.72 in test [2], 1.83 in test [3] and -0.7 in the test listed under Cavia porcellus.

Take `CC(=O)[C@H]1CC[C@H]2[C@@H]3CCC4=CC(=O)CC[C@]4(C)[C@H]3[C@H](O)C[C@]12C`: the log(RBA) in test [1] is -0.15; in test [2] it was 0.301; in test [3], 0.48; in the test listed under Cavia porcellus, -0.097.

On to `C#C[C@]1(O)CC[C@H]2[C@H]3[C@H](CC[C@@]21C)[C@H]1CCCC=C1C[C@H]3C`, for which the log(RBA) in test [1] was 0.301; in test [2], 0.954; in test [3], 0.3; in the test filed under Cavia porcellus, -0.7.

The values are drawn from ChEMBL document CHEMBL3272135, “Quantitative relationships between steroid structure and binding to putative progesterone receptors” (J Med Chem, 1977).
